In BindingDB's records for PubMed 21481795 (Tufts Medical Center):

Key:
[1] = target: Tyrosine-protein kinase Tec (Homo sapiens) (UniProt P42680); assay: Inhibition of human wild type TEC using PolyEY as substrate preincubated for 2 hrs followed by ATP addition and measured every 2 mins for […] by spectrophotometric analysis
[2] = target: 3-phosphoinositide-dependent protein kinase 1 (PDPK1) (Homo sapiens) (UniProt O15530); assay: Inhibition of human wild type PDK1 using bio-4xCHKT as substrate preincubated for 2 hrs followed by ATP addition and measured every 2 mins for […] by spectrophotometric analysis
[3] = target: Serine/threonine-protein kinase OSR1 (OXSR1) (Homo sapiens) (UniProt O95747); assay: Inhibition of human OSR1 preincubated for 2 hrs followed by ATP addition and measured every 2 mins for […] by spectrophotometric analysis

Measured: IC50

Sequence of Tyrosine-protein kinase Tec (Homo sapiens) (P42680 whole entry, looked up): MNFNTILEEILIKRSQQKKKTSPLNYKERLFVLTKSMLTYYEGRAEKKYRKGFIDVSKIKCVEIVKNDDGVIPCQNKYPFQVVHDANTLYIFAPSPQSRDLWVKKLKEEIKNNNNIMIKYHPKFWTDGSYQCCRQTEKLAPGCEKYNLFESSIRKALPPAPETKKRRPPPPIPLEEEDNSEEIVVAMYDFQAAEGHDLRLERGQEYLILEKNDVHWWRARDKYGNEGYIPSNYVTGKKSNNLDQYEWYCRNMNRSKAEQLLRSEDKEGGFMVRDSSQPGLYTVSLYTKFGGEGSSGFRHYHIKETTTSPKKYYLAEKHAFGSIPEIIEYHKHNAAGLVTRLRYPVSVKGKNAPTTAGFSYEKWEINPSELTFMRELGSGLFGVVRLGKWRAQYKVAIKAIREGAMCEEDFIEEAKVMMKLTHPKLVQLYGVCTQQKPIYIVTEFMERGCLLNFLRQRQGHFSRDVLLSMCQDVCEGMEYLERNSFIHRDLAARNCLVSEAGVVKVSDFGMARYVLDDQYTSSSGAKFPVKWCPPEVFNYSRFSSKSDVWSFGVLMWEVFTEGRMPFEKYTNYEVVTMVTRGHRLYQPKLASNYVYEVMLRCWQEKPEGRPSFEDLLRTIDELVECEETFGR
Sequence of Serine/threonine-protein kinase OSR1 (OXSR1) (Homo sapiens) (O95747 whole entry, looked up): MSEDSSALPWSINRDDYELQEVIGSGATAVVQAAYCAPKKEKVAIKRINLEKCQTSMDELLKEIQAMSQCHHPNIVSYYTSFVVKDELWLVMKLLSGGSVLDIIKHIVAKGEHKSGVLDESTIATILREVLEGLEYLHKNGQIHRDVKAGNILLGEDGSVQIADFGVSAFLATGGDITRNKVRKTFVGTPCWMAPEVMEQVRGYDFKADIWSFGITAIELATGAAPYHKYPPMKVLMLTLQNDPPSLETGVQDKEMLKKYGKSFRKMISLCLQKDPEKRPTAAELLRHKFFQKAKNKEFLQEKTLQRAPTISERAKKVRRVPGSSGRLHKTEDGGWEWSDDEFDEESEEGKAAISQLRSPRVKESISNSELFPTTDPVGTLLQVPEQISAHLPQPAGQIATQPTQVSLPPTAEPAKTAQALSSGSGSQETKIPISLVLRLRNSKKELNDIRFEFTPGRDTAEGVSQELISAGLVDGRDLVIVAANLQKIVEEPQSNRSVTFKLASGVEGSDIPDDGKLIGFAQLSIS

CNC(=O)c1cc(Oc2ccc(NC(=O)Nc3cc(C(C)(C)C)nn3-c3ccc4ncccc4c3)c(F)c2)ccn1 [Rebastinib]
> 1000 nM: all assays above
